Results reported in patent US10286022B2, “Medicinal composition of extract of seed of emblica officinalis and method of preparing the same” (priority 2013, dated 2019).

Tests used:
[1] = test system: streptozotocin induced diabetic rats; assay: Antidiabetic activity in streptozotocin induced diabetic rats (Example 22); assay type: in vivo, rat
Protocol: The amla seed extract as prepared in example 1 was evaluated for antidiabetic activity in experimental rats. Male/Female albino wistar rats were maintained as per standard guidelines: housed in polypropylene cages, under 12 hour artificial light and dark cycles at a temperature of 24±2° C., given a standard pellet diet and water ad libitum. The animals were acclimatized to the animal house conditions for a week before beginning the experiment. Diabetes was induced by injecting streptozotocin 35 mg/kg dissolved in 0.1M citrate buffer of pH 4.5, intra-peritoneally. […] Animals with FBG above 200 mg/dl were considered diabetic. The diabetic animals were randomly divided into three groups of six animals each. […] The plasma CRP level was measured initially and then at Day 28 of the study.

HMG-CoA Reductase (HMGR) = target: T1, HMG-CoA Reductase (HMGR) (Homo sapiens, UniProt P04035); assay: HMG-CoA reductase inhibition assay (Example 30); assay type: biochemical; conditions: read-out: % Inhibition over control
T1 sequence (P04035 426-888 limits assumed): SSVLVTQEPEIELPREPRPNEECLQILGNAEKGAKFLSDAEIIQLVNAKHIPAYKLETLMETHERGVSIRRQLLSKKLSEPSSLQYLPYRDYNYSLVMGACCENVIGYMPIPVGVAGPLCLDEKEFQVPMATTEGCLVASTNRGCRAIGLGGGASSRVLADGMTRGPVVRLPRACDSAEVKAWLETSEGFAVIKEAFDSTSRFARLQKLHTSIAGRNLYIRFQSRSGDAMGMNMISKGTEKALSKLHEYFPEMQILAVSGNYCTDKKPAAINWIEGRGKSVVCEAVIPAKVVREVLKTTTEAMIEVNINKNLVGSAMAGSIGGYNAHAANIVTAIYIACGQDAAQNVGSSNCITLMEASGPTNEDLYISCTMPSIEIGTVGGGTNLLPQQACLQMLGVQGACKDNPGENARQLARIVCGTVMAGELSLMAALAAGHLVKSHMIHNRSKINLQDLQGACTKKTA
Protocol: Amla seed extract prepared as per example 1 and water extract of dried Amla seed prepared as per example 8 was weighed separately and each extract was dissolved in dimethyl sulfoxide (DMSO) to prepare a stock of 400 mg/ml stock solution of each. From this stock, different dose levels were prepared in DMSO for further experimental use. […] The optical density (OD) values were recorded using spectrophotometer at regular time intervals. […] Based on the specific activity values from all the test doses, EC50 (Effective Concentration 50) were determined by plotting a curve between Specific activity Vs. Test concentration. EC50 values (μg/ml) and IC50 (μM) were determined by interpolation method by using Graph pad prism, version 5.01.

Row | SMILES | Fasting Blood Glucose level Day 7 ([1]; 0.5 mg/kg for 28 days) [mg/dL] | Fasting Blood Glucose level Day 14 ([1]; 0.5 mg/kg for 28 days) [mg/dL] | Fasting Blood Glucose level Day 21 ([1]; 0.5 mg/kg for 28 days) [mg/dL] | Fasting Blood Glucose level Day 28 ([1]; 0.5 mg/kg for 28 days) [mg/dL] | effect on blood glucose level ([1]; 0.5 mg/kg for 28 days) | Fasting Blood Glucose level Day 1 (Initial) ([1]; 0.5 mg/kg for 28 days group) [mg/dL] | effect on CRP level ([1]; 0.5 mg/kg for 28 days, compared to initial CRP value) | CRP level Day 28 (Final) ([1]; plasma, 0.5 mg/kg for 28 days) [mg/L] | CRP level Day 1 (Initial) ([1]; plasma, 0.5 mg/kg for 28 days group) [mg/L] | inhibition at 2.5 µM (HMG-CoA Reductase (HMGR); test concentration 2.5 μM) [%] | inhibition at 5 µM (HMG-CoA Reductase (HMGR); test concentration 5 μM) [%] | inhibition at 10 µM (HMG-CoA Reductase (HMGR); test concentration 10 μM) [%] | inhibition at 20 µM (HMG-CoA Reductase (HMGR); test concentration 20 μM) [%] | inhibition at 40 µM (HMG-CoA Reductase (HMGR); test concentration 40 μM) [%] | inhibition at 60 µM (HMG-CoA Reductase (HMGR); test concentration 60 μM) [%] | inhibition at 80 µM (HMG-CoA Reductase (HMGR); test concentration 80 μM) [%] | inhibition at 100 µM (HMG-CoA Reductase (HMGR); test concentration 100 μM) [%]
1 | COc1ccc(Cl)cc1C(=O)NCCc1ccc(S(=O)(=O)NC(=O)NC2CCCCC2)cc1 [Glibenclamide] | 211 | 179 | 136 | 109 | decreased the blood glucose level to nearly normal | 406 | failed to decrease the CRP level significantly | 9.6 | 10.8 |  |  |  |  |  |  |  | 
2 | CC[C@H](C)C(=O)O[C@H]1C[C@@H](C)C=C2C=C[C@H](C)[C@H](CC[C@@H]3C[C@@H](O)CC(=O)O3)[C@H]21 [LOVASTATIN, lovastatin] |  |  |  |  |  |  |  |  |  | 37 | 37.6 | 37.7 | 41.5 | 55.6 | 76.5 | 86.6 | 98.5
